As usually defined, the IC50 is the concentration that inhibits the measured activity by half. A low value points to greater potency in that assay.

From ChEMBL document CHEMBL4406840, “Design and synthesis of novel artemisinin derivatives with potent activities against colorectal cancer in vitro and in vivo” (Eur J Med Chem, 2019) come the findings set out here.

Activity calls are given as the source filed them. The rule behind the calls is not given here. Where only a bound is given, the exact number is not on record here.

For one data set, the system named is WM 266-4. Kind of data set: cells. Format: functional, cell-based. The settings on record: Homo sapiens, WM 266-4, 48 h.
The subject of data set [1] is HCT-116. Kind of data set: cells. Type of data set: functional, cell-based. The settings on record: Homo sapiens, HCT-116, 48 h.
Description: Antiproliferative activity against human HCT116 cells assessed as inhibition of cell viability after 48 hrs by MTS assay
The test system of data set [2] is HCT-116. The data set is described as follows: Antitumour activity against human HCT116 cells xenografted in BALB/c nude mouse assessed as tumour shrunken at 2.5 to 5 mg/kg, ip administered daily for 18 days started from 2 days after tumor cell inoculation by digital caliper method. Type of data set: functional, organism-based. (In general: In xenograft studies the graft and the host belong to different species.)

The subject of data set [3] is HCT-116. The data set is described as follows: Antitumour activity against human HCT116 cells xenografted in BALB/c nude mouse assessed as delay in tumour growth at 2.5 to 5 mg/kg, ip administered daily for 18 days started from 2 days after tumor cell inoculation by digital caliper method. Format: functional, organism-based.
The nature of data set [4]: Toxicity in BALB/c nude mouse xenografted with human HCT116 cells assessed as effect on body weight at 2.5 to 5 mg/kg, ip administered daily for 18 days. Format: organism-based. The settings on record: in vivo, 432 h.
For data set [5], the system named is HCT-116. The settings on record: Homo sapiens, at 10 mg/kg.
Description: Antitumour activity against human HCT116 cells xenografted in BALB/c nude mouse assessed as reduction in tumour growth at 10 mg/kg, ip administered daily for 18 days started from 2 days after tumor cell inoculation by digital caliper method
Data set [6] has as its system HCT-116. Kind of data set: Potency index, ratio of dihydroartemisinin IC50 to compound IC50 for antiproliferative activity against human HCT116 cells by MTS assay. Type of data set: functional. On the technique in general: Tetrazolium assays rely on reduction of a dye to a coloured formazan, in cell work by metabolically active cells.

Description for WM 266-4: Antiproliferative activity against human WM266.4 cells assessed as inhibition of cell viability after 48 hrs by MTS assay

In the case of `C[C@H]1[C@H](NC(=O)CCCCC(=O)OCc2ccc3ncnc(Nc4ccc(F)c(Cl)c4)c3c2)O[C@@H]2O[C@@]3(C)CC[C@H]4[C@H](C)CC[C@@H]1[C@@]24OO3`, the IC50 in the data set with WM 266-4 was determined as 25.3 µM; in the data set on HCT-116 [1], 5680 nM.
`C[C@H]1[C@@H](OCCCCOCc2ccc3ncnc(Nc4ccc(F)c(Cl)c4)c3c2)O[C@@H]2O[C@@]3(C)CC[C@H]4[C@H](C)CC[C@@H]1[C@@]24OO3`: the half-maximal inhibitory concentration (IC50) in the data set on WM 266-4 was determined as 3.81 µM; in the data set on HCT-116 [1] it was 360 nM.
Compound `CC(=O)O[C@H]1C(=O)[C@@]2(C)[C@H]([C@H](OC(=O)c3ccccc3)[C@]3(O)C[C@H](OC(=O)[C@H](O)[C@@H](NC(=O)c4ccccc4)c4ccccc4)C(C)=C1C3(C)C)[C@]1(OC(C)=O)CO[C@@H]1C[C@@H]2O` [PACLITAXEL] registered an IC50 with WM 266-4 of 0.00032 µM.
In the data set on HCT-116 [1], `C[C@@H]1CC[C@H]2[C@@H](C)C(O[C@H](C(=O)OCc3ccc4ncnc(Nc5ccc(F)c(Cl)c5)c4c3)c3ccccc3)O[C@@H]3O[C@@]4(C)CC[C@@H]1[C@]32OO4` (stereo partly drawn) returned an IC50 of 890 nM.
`C[C@H]1[C@H](OCCCCCOc2ccc3ncnc(Nc4ccc(F)c(Cl)c4)c3c2)O[C@@H]2O[C@@]3(C)CC[C@H]4[C@H](C)CC[C@@H]1[C@@]24OO3`: the IC50 in the data set with WM 266-4 worked out at 5.7 µM; in the data set on HCT-116 [1], 350 nM.
As for `C[C@H]1[C@H](OCCCCOCc2ccc3ncnc(Nc4ccc(F)c(Cl)c4)c3c2)O[C@@H]2O[C@@]3(C)CC[C@H]4[C@H](C)CC[C@@H]1[C@@]24OO3`, the IC50 in the data set on WM 266-4 was 12.6 µM; in the data set on HCT-116 [1], 2420 nM.
For `C[C@H]1[C@@H](OCc2ccc3ncnc(Nc4ccc(F)c(Cl)c4)c3c2)O[C@@H]2O[C@@]3(C)CC[C@H]4[C@H](C)CC[C@@H]1[C@@]24OO3`, the IC50 in the data set on WM 266-4 was 10.8 µM; with HCT-116 [1], 290 nM.
In the case of `CC(=O)N(c1ccc(F)c(Cl)c1)c1ncnc2ccc(COC(=O)CCCC(=O)N[C@@H]3O[C@@H]4O[C@@]5(C)CC[C@H]6[C@H](C)CC[C@@H]([C@H]3C)[C@@]46OO5)cc12`, the results for the IC50 in the data set with WM 266-4 and with HCT-116 [1] were 5.08 µM and 5350 nM, respectively.
For `C[C@H]1[C@H](NC(=O)CCC(=O)OCc2ccc3ncnc(Nc4ccc(F)c(Cl)c4)c3c2)O[C@@H]2O[C@@]3(C)CC[C@H]4[C@H](C)CC[C@@H]1[C@@]24OO3`, in that order: 9.88 µM and 2780 nM.
As to `C[C@H]1[C@H](OCc2ccc3ncnc(Nc4ccc(F)c(Cl)c4)c3c2)O[C@@H]2O[C@@]3(C)CC[C@H]4[C@H](C)CC[C@@H]1[C@@]24OO3`, the figures for the IC50 in the data set on WM 266-4 and with HCT-116 [1] were 4.56 µM and 420 nM, respectively.
Consider `C[C@H]1[C@H](OC(=O)CCCC(=O)OCc2ccc3ncnc(Nc4ccc(F)c(Cl)c4)c3c2)O[C@@H]2O[C@@]3(C)CC[C@H]4[C@H](C)CC[C@@H]1[C@@]24OO3`, for which the IC50 was found to be 11.4 µM in the data set with WM 266-4 and 290 nM in the data set on HCT-116 [1].
Taken in the same sequence, the figures for `O=C(O)c1ccc2ncnc(Nc3ccc(F)c(Cl)c3)c2c1` were greater than 40 µM and greater than 40000 nM.
On to `CC(=O)N(c1ccc(F)c(Cl)c1)c1ncnc2ccc(COC(=O)CCC(=O)O[C@@H]3O[C@@H]4O[C@@]5(C)CC[C@H]6[C@H](C)CC[C@@H]([C@H]3C)[C@@]46OO5)cc12`, for which the results for the half-inhibitory concentration (IC50) in the data set with WM 266-4 and in the data set with HCT-116 [1] were 9.29 µM and 280 nM, respectively.
For the compound `CC(=O)N(c1ccc(F)c(Cl)c1)c1ncnc2ccc(COC(=O)CCCC(=O)O[C@@H]3O[C@@H]4O[C@@]5(C)CC[C@H]6[C@H](C)CC[C@@H]([C@H]3C)[C@@]46OO5)cc12`, the half-maximal inhibitory concentration (IC50) was found to be 15 µM in the data set on WM 266-4 and 780 nM in the data set with HCT-116 [1].
With `C[C@H]1[C@H](OCCCOCc2ccc3ncnc(Nc4ccc(F)c(Cl)c4)c3c2)O[C@@H]2O[C@@]3(C)CC[C@H]4[C@H](C)CC[C@@H]1[C@@]24OO3`, the results for the IC50 in the data set on WM 266-4 and with HCT-116 [1] were 15.8 µM and 6540 nM, respectively.
In turn, `C[C@@H]1CC[C@H]2[C@@H](C)C(O[C@@H](C(=O)OCc3ccc4ncnc(Nc5ccc(F)c(Cl)c5)c4c3)c3ccccc3)O[C@@H]3O[C@@]4(C)CC[C@@H]1[C@]32OO4` (stereo partly drawn) gave an IC50 in the data set on HCT-116 [1] of 680 nM.
On to `CC(=O)N(c1ccc(F)c(Cl)c1)c1ncnc2ccc(COC(=O)CCCCC(=O)N[C@@H]3O[C@@H]4O[C@@]5(C)CC[C@H]6[C@H](C)CC[C@@H]([C@H]3C)[C@@]46OO5)cc12`, for which the IC50 in the data set with WM 266-4 was 27.8 µM; in the data set on HCT-116 [1], 11800 nM.
On to `C[C@H]1[C@H](OC[C@H](NC(=O)c2ccc3ncnc(Nc4ccc(F)c(Cl)c4)c3c2)c2ccccc2)O[C@@H]2O[C@@]3(C)CC[C@H]4[C@H](C)CC[C@@H]1[C@@]24OO3`, for which, in the data set on HCT-116 [2], the outcome was Active. Also, the IC50 in the data set on WM 266-4 was determined as 6.67 µM; in the data set on HCT-116 [1] it was 110 nM. The inhibition result in the data set with HCT-116 [3] is “Active”. Besides, the Activity entry in data set [4] is reported as “Non-Toxic”.
Regarding `C[C@H]1[C@H](OC[C@H](N)c2ccccc2)O[C@@H]2O[C@@]3(C)CC[C@H]4[C@H](C)CC[C@@H]1[C@@]24OO3`, the IC50 is 15.1 µM with WM 266-4 and 16200 nM in the data set with HCT-116 [1].
As for `C[C@H]1[C@H](O)O[C@@H]2O[C@@]3(C)CC[C@H]4[C@H](C)CC[C@@H]1[C@@]24OO3`, the concentration for half-maximal inhibition (IC50) was greater than 40 µM in the data set with WM 266-4 and 2850 nM in the data set with HCT-116 [1]. Also, in the data set with HCT-116 [5], the inhibition result is “Active”.
Turning to `C[C@H]1[C@@H](OCCCOCc2ccc3ncnc(Nc4ccc(F)c(Cl)c4)c3c2)O[C@@H]2O[C@@]3(C)CC[C@H]4[C@H](C)CC[C@@H]1[C@@]24OO3`, the IC50 was determined as 5.18 µM with WM 266-4 and 2110 nM in the data set with HCT-116 [1].
For `C[C@H]1[C@H](NC(=O)CCCC(=O)OCc2ccc3ncnc(Nc4ccc(F)c(Cl)c4)c3c2)O[C@@H]2O[C@@]3(C)CC[C@H]4[C@H](C)CC[C@@H]1[C@@]24OO3`, the IC50 worked out at 15.3 µM with WM 266-4 and 5560 nM in the data set on HCT-116 [1].
Taken in the same sequence, the figures for `CC(=O)N(c1ccc(F)c(Cl)c1)c1ncnc2ccc(COC(=O)CCC(=O)N[C@@H]3O[C@@H]4O[C@@]5(C)CC[C@H]6[C@H](C)CC[C@@H]([C@H]3C)[C@@]46OO5)cc12` were 15.4 µM and 12900 nM.
Consider `C[C@H]1[C@@H](OCCCCCOc2ccc3ncnc(Nc4ccc(F)c(Cl)c4)c3c2)O[C@@H]2O[C@@]3(C)CC[C@H]4[C@H](C)CC[C@@H]1[C@@]24OO3`, for which, in the data set on HCT-116 [6], the “Ratio IC50” value worked out at 10. In addition, the IC50 in the data set with WM 266-4 was found to be 2.91 µM; in the data set with HCT-116 [1], 240 nM.
For `CC(=O)N(c1ccc(F)c(Cl)c1)c1ncnc2ccc(COC(=O)CCCCC(=O)O[C@@H]3O[C@@H]4O[C@@]5(C)CC[C@H]6[C@H](C)CC[C@@H]([C@H]3C)[C@@]46OO5)cc12`, the IC50 was determined as 18.8 µM in the data set on WM 266-4 and 660 nM in the data set with HCT-116 [1].
For `C[C@H]1[C@H](OC(=O)CCC(=O)O)O[C@@H]2O[C@@]3(C)CC[C@H]4[C@H](C)CC[C@@H]1[C@@]24OO3` [ARTESUNATE], the results for the concentration for half-maximal inhibition (IC50) with WM 266-4 and with HCT-116 [1] were 8.46 µM and 890 nM, respectively.
With `C[C@H]1[C@H](OC(=O)CCC(=O)OCc2ccc3ncnc(Nc4ccc(F)c(Cl)c4)c3c2)O[C@@H]2O[C@@]3(C)CC[C@H]4[C@H](C)CC[C@@H]1[C@@]24OO3`, the IC50 in the data set with WM 266-4 came out at 10.2 µM; in the data set on HCT-116 [1], 180 nM.
For `C[C@H]1[C@H](OC(=O)CCCCC(=O)OCc2ccc3ncnc(Nc4ccc(F)c(Cl)c4)c3c2)O[C@@H]2O[C@@]3(C)CC[C@H]4[C@H](C)CC[C@@H]1[C@@]24OO3`, in that order: 3.51 µM and 310 nM.
